Patent US20240417778A1, “Methods for Nucleic Acid Cleavage” (priority 2021, published 2024)
Entries after “also recorded” stand apart in the source; their conditions may differ.

Experiments:
E. coli ribosome = experiment: In vitro degradation of E. coli ribozyme (agarose gel); type: biochemical; conditions: 15 mM to 0.47 mM, 18 hours, 200 μM ribozyme
Description: The degradation activity was measured in an in vitro assay, targeting the E. coli ribosome. […] Evaluation was made by agarose gel analysis.

pseudoknot = conditions: relative to MTDB (Park et al., 2011); cited from earlier work
SARS-CoV-2 [1] = experiment: Virucidal activity on cell free virions; conditions: 6 μM, 1 h at 37° C., 1000 PFU, plaque assay
[2] = test system: frameshifting in SARS-CoV-2; conditions: Kelly et al., 2020; cited from earlier work
[3] = test system: RNA 69-er with a sequence that corresponds to the coronaviral pseudoknot; type: biochemical; conditions: 1 mM, 3 h incubation, 37° C.
[4] = test system: oligomer corresponding to the coronaviral pseudoknot; conditions: shape of MST binding curve
SARS-CoV-2 [5] = experiment: Drug assay of SARS-CoV-2 replication on Vero CCL-81 cells (PCR); type: cell-based; conditions: Vero CCL-81, MOI 0.05, 24 h, added 1 h before or 1 h after infection
[6] = Solubility in aqueous media
SARS-CoV-2 [7] = type: cell-based; conditions: 6 μM for 24 h, added before or after infection, vs vehicle control
SARS-CoV-2 [8] = type: in vivo, K18-hACE2 mice; conditions: 10 mg/kg intranasally 1 hour pre- and 3 hours post-infection, day 5, plaque assay, vs vehicle
[9] = target: perturbed pseudoknot oligonucleotide; experiment: Micro-scale thermophoresis (MST), perturbed pseudoknot; type: binding; conditions: FAM-tagged oligonucleotide 50 nM, HEPES pH 7.4, 25.0° C.
[10] = test system: RNA extracted from SARS-CoV-2; type: biochemical; conditions: 100 μM, 2 h, 37° C.
[11] = test system: G4 structure found on 5′UTR of NRAS mRNA; experiment: Fluorescence quenching assay; type: binding; conditions: Cy5-tagged oligonucleotide 50 nM, HEPES pH 7.4, 25.0° C.
Description: To prepare oligonucleotides for binding studies, oligonucleotides were dissolved at an appropriate buffer to a final concentration of 100 nM, then incubated at 95° C. with shaking for 5 min. Samples were allowed to cool at room temperature for at least 1 h before further dilutions/treatments.
Cy5-tagged oligonucleotide corresponding to G4 structure found on 5′UTR of NRAS mRNA (final concentration 50 nM) were dissolved in 20 mM HEPES pH 7.4 buffer supplemented with KCl (100 mM) and MgCl2 (10 mM) and plated on a 96-well plate. Oligonucleotides were treated with various concentrations of PDS family ligands as indicated, ranging from 5 nM to 10 μM, or a water vehicle control, followed by 30 minute incubation at 4° C. Fluorescence corresponding to Cy5 fluorophore was then measured for each oligonucleotide-small molecule/vehicle control combination using a plate reader (BMG CLARIOstar) at 25.0° C. […] Fluorescence was normalised to a vehicle control and binding curves for each molecule were obtained via a sigmoidal fit by setting the Hill Slope coefficient to 1.
PDS and its derivatives were incubated with a Cy5-functionalised oligomer corresponding to a G-quadruplex in NRAS 5′UTR, a well-established G4 model. As fluorescence quenching is proximity-induced, the signal corresponding to Cy5 is quenched upon PDS binding. […]

## chloramphenicol-6PEG-imidazole degrader [18a]
E. coli ribosome
  ribosome degradation: no degradation visible

## chloramphenicol-2PEG-imidazole degrader [18b]
E. coli ribosome
  ribosome degradation: ribosome degradation could be observed at a concentration of 15 mM
E. coli ribosome; listed as diethylene glycol linker
  ribosome degradation: degradation visible at 15 mM concentration

## CCOC(=O)c1ccccc1NC(=O)N1CCCN(Cc2ccsc2)CC1 [TDB]
pseudoknot
  binding affinity towards the pseudoknot: lower binding affinity towards the pseudoknot

## CCOC(=O)c1ccccc1NC(=O)N1CCCN(Cc2csc(C)n2)CC1 [MTDB]
SARS-CoV-2 [1]
  virucidal effect: no virucidal effect was observed; also recorded: no virucidal effect on cell free virions
[2]
  frameshifting: known to disrupt frameshifting in SARS-CoV-2
[3]
  degradation of RNA pseudoknot: no degradation
[4]
  concentration with noticeable binding: ≥ 187.5 µM
SARS-CoV-2 [5]
  antiviral effect (viral replication, E gene and pseudoknot region RNA): did not exhibit an antiviral effect; also recorded: did not inhibit viral replication
[6]
  solubility: not soluble enough for KD determination using MST; also recorded: limited solubility
SARS-CoV-2 [7]
  number of viral plaques: only showed decreased number of viral plaques when added before infection
SARS-CoV-2 [8]
  lung viral load: No differences in lung viral load
[9]
  KD: No appreciable binding was observed
[10]
  degradation of native SARS-CoV-2 RNA on agarose gel: do not

## O=C(N[C@H](CO)[C@H](O)c1ccc([N+](=O)[O-])cc1)C(Cl)Cl [chloramphenicol, Chloramphenicol]
E. coli ribosome
  ribosome degradation: no degradation

## chloramphenicol-ethyl-imidazole degrader [18c]
E. coli ribosome
  ribosome degradation: no degradation visible

## NCCOc1cc(C(=O)Nc2cc(OCCN)c3ccccc3n2)nc(C(=O)Nc2cc(OCCN)c3ccccc3n2)c1 [PDS, Pyridostatin]
[11]
  EC50: 51 nM
